Measurements taken from paper PMC9257626 (RSC Chemical Biology, 2022).
Where a name gives a salt, the structure may show the parent alone.

Target: GAPDH (endogenous, HeLa / Jurkat) (Homo sapiens, UniProt P04406)
Assay type: biochemical

Chain of GAPDH (endogenous, HeLa / Jurkat) (P04406 2-335 limits assumed): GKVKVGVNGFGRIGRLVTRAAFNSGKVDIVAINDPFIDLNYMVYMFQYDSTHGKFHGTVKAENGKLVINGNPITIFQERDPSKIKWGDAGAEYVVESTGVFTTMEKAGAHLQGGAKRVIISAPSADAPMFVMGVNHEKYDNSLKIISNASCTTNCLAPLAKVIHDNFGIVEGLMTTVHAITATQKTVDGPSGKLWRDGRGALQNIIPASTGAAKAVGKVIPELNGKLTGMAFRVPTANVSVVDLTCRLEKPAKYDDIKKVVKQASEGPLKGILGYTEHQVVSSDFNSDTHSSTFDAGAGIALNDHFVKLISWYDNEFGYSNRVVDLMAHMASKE

Row | Compound | loss of SEC1 labeling at 5 μM
1 | O=C(O)C(=O)CBr [3-BP, 3-bromopyruvate] | 3-BP, IA and DMF showed complete loss of SEC1 labeling even at the lower concentration
2 | COC(=O)/C=C/C(=O)OC [DMF, dimethyl fumarate] | 3-BP, IA and DMF showed complete loss of SEC1 labeling even at the lower concentration
